Measured values as given in US8791132B2, “Compounds and methods for treatment of hypertension” (Medivation Technologies, Inc., priority 2011, dated 2014).
Where “and” joins values, the source holds several entries; their conditions need not be identical. Equal entries are not always repeated. Where two headings read alike, the source gives them in different places.

Experiments:
[1] = target: T1, human recombinant adrenergic α2B receptor (Homo sapiens, UniProt P18089); experiment: Radioligand binding, adrenergic α2B ([3H]Rauwolscine); settings: for Percentage inhibition of ligand binding, Adrenergic α2B (0.1 μM): compound at 0.1 μM; for Percentage inhibition of ligand binding, Adrenergic α2B (0.1 μM) / inhibition at 0.03 µM / inhibition at 0.1 µM / Percentage inhibition of ligand binding, Adrenergic α2B (0.03 μM): repeat datapoints each shown; for Ki: read-out: Ki α2B; for inhibition at 0.03 µM: read-out: Percentage inhibition of ligand binding, Adrenergic α2B (0.03 μM), compound at 0.03 μM; for inhibition at 0.1 µM: read-out: Percentage inhibition of ligand binding, Adrenergic α2B (0.1 μM), compound at 0.1 μM
T1 construct: expressed in transfected cells; host or cells: CHO-K1
T1 sequence (P18089 1-450): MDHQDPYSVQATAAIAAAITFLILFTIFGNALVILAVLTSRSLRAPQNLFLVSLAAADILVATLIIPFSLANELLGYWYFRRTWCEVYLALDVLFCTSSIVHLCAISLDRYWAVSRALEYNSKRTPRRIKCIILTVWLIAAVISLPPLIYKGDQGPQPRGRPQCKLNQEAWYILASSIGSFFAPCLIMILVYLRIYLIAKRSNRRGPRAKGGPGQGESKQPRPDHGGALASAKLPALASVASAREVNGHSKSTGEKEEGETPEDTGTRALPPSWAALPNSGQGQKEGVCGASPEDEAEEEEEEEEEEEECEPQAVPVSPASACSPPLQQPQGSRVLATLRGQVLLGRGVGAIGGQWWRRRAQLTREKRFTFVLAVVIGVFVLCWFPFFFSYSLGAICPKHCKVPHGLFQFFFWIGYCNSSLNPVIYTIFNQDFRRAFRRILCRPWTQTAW
Outline: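 Assay used CHO-K1-expressed human α2B receptor in Tris-HCl pH 7.4 buffer with MgCl2, EDTA and BSA; 60 min incubation at 25 °C.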

[2] = target: T2, human recombinant adrenergic α2A receptor (Homo sapiens, UniProt P08913); experiment: Radioligand binding, adrenergic α2A ([3H]MK-912); settings: for inhibition at 0.1 µM: read-out: Percentage inhibition of ligand binding, Adrenergic α2A (0.1 μM), compound at 0.1 μM
T2 construct: expressed in transfected cells; host or cells: insect Sf9 cells
T2 sequence (P08913 1-465): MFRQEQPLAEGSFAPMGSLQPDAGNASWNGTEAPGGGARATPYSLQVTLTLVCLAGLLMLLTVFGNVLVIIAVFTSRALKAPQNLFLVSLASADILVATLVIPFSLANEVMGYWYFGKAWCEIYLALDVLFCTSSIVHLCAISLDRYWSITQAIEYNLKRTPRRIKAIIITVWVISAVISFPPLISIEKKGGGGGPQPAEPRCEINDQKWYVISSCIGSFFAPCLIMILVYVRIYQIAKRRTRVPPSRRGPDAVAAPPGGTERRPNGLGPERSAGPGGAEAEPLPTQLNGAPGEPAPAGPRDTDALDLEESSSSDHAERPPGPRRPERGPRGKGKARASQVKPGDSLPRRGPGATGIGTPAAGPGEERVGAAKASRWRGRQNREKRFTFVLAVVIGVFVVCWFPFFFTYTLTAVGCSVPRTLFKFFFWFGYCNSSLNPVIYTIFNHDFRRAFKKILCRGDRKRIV
Outline: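 Receptor expressed in insect Sf9 cells, assayed in 50 mM Tris-HCl pH 7.4 with 12.5 mM MgCl2 and 2 mM EDTA. Compounds incubated with 1 nM [3H]MK-912 for 60 min at 25 °C; nonspecific binding defined with 10 μM WB-4101. Filter-bound radioactivity counted; values are percent inhibition of specific binding.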

[3] = target: T3, rat adrenergic α1B receptor (Rattus norvegicus, UniProt P15823); experiment: Radioligand binding, adrenergic α1B ([3H]Prazosin); settings: for inhibition at 0.03 µM: read-out: Percentage inhibition of ligand binding, Adrenergic α1B (0.03 μM), compound at 0.03 μM; for inhibition at 0.1 µM: read-out: Percentage inhibition of ligand binding, Adrenergic α1B (0.1 μM), compound at 0.1 μM; for Percentage inhibition of ligand binding, Adrenergic α1B: repeat assays, each datapoint shown
T3 construct: rat adrenergic α1B receptor obtained from Wistar Rat liver; from tissue; host or cells: Wistar rat liver
T3 sequence (P15823 1-515): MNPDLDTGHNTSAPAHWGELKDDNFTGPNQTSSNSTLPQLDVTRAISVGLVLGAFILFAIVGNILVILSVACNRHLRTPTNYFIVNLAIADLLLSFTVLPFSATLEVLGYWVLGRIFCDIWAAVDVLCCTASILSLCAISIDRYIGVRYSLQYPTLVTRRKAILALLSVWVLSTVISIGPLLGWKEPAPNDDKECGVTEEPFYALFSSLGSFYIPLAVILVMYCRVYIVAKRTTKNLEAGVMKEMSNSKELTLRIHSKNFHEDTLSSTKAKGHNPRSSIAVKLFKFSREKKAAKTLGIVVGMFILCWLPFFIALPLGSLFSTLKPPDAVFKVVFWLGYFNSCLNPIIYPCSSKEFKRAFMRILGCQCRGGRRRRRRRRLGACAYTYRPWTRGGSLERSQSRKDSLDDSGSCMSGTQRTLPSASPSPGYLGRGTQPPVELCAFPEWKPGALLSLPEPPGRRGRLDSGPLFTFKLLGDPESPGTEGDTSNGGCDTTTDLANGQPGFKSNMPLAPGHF
Outline: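 Filter binding with Wistar rat liver α1B preparation: test compound plus 0.25 nM [3H]prazosin, 1 h at 25° C in modified Tris-HCl buffer pH 7.4.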

[4] = compound at 0.1 μM, [3H]MK-912, repeat datapoints each shown, 0.1 µM
[5] = read-out: Percentage inhibition of ligand binding, Adrenergic α2A (0.03 μM), compound at 0.03 μM, [3H]MK-912, repeat datapoints each shown
[6] = [3H]MK-912, repeat datapoints each shown
[7] = compound at 0.1 μM, [3H]Prazosin, repeat datapoints each shown, 0.1 µM
[8] = [3H]Prazosin, repeat datapoints each shown
[9] = compound at 0.03 μM, [3H]Rauwolscine, 0.03 µM

| Percentage inhibition of ligand binding, Adrenergic α2B (0.1 μM) ([1]; [3H]Rauwolscine) | Ki [1] | inhibition at 0.03 µM ([1]; [3H]Rauwolscine) | inhibition at 0.1 µM ([1]; [3H]Rauwolscine) | Ki [2] | Percentage inhibition of ligand binding, Adrenergic α2A (0.1 μM) [2, 4] | inhibition at 0.03 µM [2, 5] | inhibition at 0.1 µM [2, 6] | Percentage inhibition of ligand binding, Adrenergic α1B (0.1 μM) [3, 7] | inhibition at 0.03 µM [3, 8] | inhibition at 0.1 µM [3, 8] | Percentage inhibition of ligand binding, Adrenergic α2B (0.03 μM) [1, 9] | Percentage inhibition of ligand binding, Adrenergic α1B (0.03 μM) ([3]; compound at 0.03 μM, [3H]Prazosin, repeat datapoints each shown, 0.03 µM) | Percentage inhibition of ligand binding, Adrenergic α2B ([1]; compound at 0.03 μM, [3H]Rauwolscine, repeat assays, each datapoint shown, 0.03 µM) | inhibition at 0.03 µM ([2]; compound at 0.03 μM, [3H]MK-912, repeat assays, each datapoint shown, read-out: Percentage inhibition of ligand binding, Adrenergic α2A) | Percentage inhibition of ligand binding, Adrenergic α2A ([2]; compound at 0.1 μM, [3H]MK-912, repeat assays, each datapoint shown, 0.1 µM) | Ki [3] | Percentage inhibition of ligand binding, Adrenergic α1B ([3]; compound at 0.03 μM, [3H]Prazosin, 0.03 µM) | Percentage inhibition of ligand binding, Adrenergic α1B ([3]; compound at 0.1 μM, [3H]Prazosin, 0.1 µM) | SMILES |
| --- | --- | --- | --- | --- | --- | --- | --- | --- | --- | --- | --- | --- | --- | --- | --- | --- | --- | --- | --- |
| 70% | 20.5 nM | 39% | 55% | 65.8 nM | 48% | 25% | 45% | 22% | 4% | 21% | – | – | – | – | – | – | – | – | Cc1ccc2c(c1)c1c(n2CNc2ccccn2)CCN(C)C1 [compound 120, (2,8-dimethyl-1,2,3,4-tetrahydro-pyrido[4,3-b]indol-5-ylmethyl)-pyridin-2-yl-amine] |
| – | 0.53 nM | – | 105% | – | 32% | – | – | 79% | 52% | – | 93% and 98% and 100% | – | – | – | – | – | – | – | Cc1ccc2c(c1)c1c(n2CC(C)(O)c2cnccn2)CCN2CCCC12 (single isomer, unassigned) [176a] |
| – | – | 68% | 80% | – | – | – | 93% | – | 50% | 71% | – | – | – | – | – | – | – | – | Cc1ccc(C(O)Cn2c3c(c4cc(C)ccc42)CN(C)CC3)cc1 (racemic) [compound 183, racemic-2-(1,2,3,4-tetrahydro-2,8-dimethylpyrido[4,3-b]indol-5-yl)-1-p-tolylethanol] |
| 93% | – | – | 91% | – | 78% | – | 75% | 82% | – | 81% | – | – | – | – | – | – | – | – | COc1ccc(/C(C)=C/n2c3c(c4cc(C)ccc42)CCN(C)CC3)cc1F [compound 241] |
| 99% | 3.23 nM | 84% | 89% | 2.1 nM | 98% | 85% | 89% | 20% | 2% | 10% | – | – | – | – | – | – | – | – | Cc1ccc2c(c1)c1c(n2C2=C(c3ccc4c(ccn4C)c3)CCC2)CCN(C)C1 [compound 191, 2,8-dimethyl-5-(2-(1-methyl-1H-indol-5-yl)cyclopent-1-enyl)-2,3,4,5-tetrahydro-1H-pyrido[4,3-b]indole] |
| – | – | 83% | 91% | – | – | – | 69% | – | 13% | 29% | – | – | – | – | – | – | – | – | CN1CCc2c(c3ccccc3n2CCc2ccccc2)C1 [compound 182, 2,3,4,5-Tetrahydro-2-methyl-5-phenethyl-1H-pyrido[4,3-b]indole] |
| 98% | 4.43 nM | 78% | 84% | 17.9 nM | 63% and 84% | 41% | – | – | – | 71% | – | – | – | – | – | – | – | – | C/C(=C\n1c2c(c3cc(C)ccc31)CN(C)CC2)c1cnc(N(C)C)nc1 [compound 187] |
| – | – | 7% | 22% | – | – | – | 92% | – | 29% | 52% | – | – | – | – | – | – | – | – | CCN1CCc2c(c3cc(C)ccc3n2CCc2ccc(C)cc2)C1 [compound 202] |
| 76% | – | – | 63% | – | 15% | – | 14% | 79% | – | 61% | – | – | – | – | – | – | – | – | C/C(=C\n1c2c(c3cc(C)ccc31)CN(C)CC2)c1ccncn1 [compound 101] |
| 103% | – | – | 96% | – | 32% | – | 26% | 83% | – | 81% | – | – | – | – | – | – | – | – | Cc1ccc2c(c1)c1c(n2CC(C)(O)c2ccc(O)cc2)CCN(C)C1 (stereo not drawn) [compound 98] |
| 102% | 1.7 nM and 2.36 nM | 83% | 100% | – | 4% | – | 3% | 60% and 66% | 28% | 53% | 85% and 87% | 36% | – | – | – | – | – | – | Cc1ccc2c(c1)c1c(n2CC(O)c2ccc(C(N)=O)nc2)CCN(C)C1 (single isomer, unassigned) [144b, 5-[2-(2,8-dimethyl-1,2,3,4-tetrahydro-pyrido[4,3-b]indol-5-yl)-1-hydroxy-ethyl]-pyridine-2-carboxylic acid amide] |
| – | – | 16% | 36% | – | – | – | 67% | – | 22% | 50% | – | – | – | – | – | – | – | – | CCN1CCc2c(c3cc(C)ccc3n2CCc2ccccc2)C1 [compound 201] |
| – | 0.26 nM and 0.28 nM and 0.46 nM | – | – | 139 nM and 166 nM and 222 nM | – | – | – | – | – | – | – | – | 100% and 101% and 102% and 112% | 1% | 21% and 22% and 23% and 25% | 51 nM | 27% and 32% and 34% | 50% and 55% and 57% and 61% | Cc1ccc2c(c1)c1c(n2CC(O)c2ccncc2)CCN(C)C1 (single isomer, unassigned) [3b] |
